PubChem BioAssay AID488808 (NMMLSC, 2010)
Activity calls are given as the source filed them.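 The calls were made as follows: active = EC50 at or below 33 microM; inactive = the rest.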

System: S. cerevisiae RPL19A-GFP strain, flow cytometry fluorescence, 3 h
Test: yeast TOR reporter RPL19A-GFP, SAR compounds – cell-based, S. cerevisiae, flow cytometry, KU SAR compounds, SAR follow-up (AID 488808)

**Q.** With O=S(=O)(CCN(CCS(=O)(=O)C(F)(F)F)CC1CCCO1)C(F)(F)F (configuration not stated) as the compound, how does the EC50 read?
**A.** The EC50 was 21.7 µM.

**Q.** Which EC50 does the source give for Cc1ccc2nc(Cl)c3nnnn3c2c1 here?
**A.** The EC50 was 2.11 µM.

**Q.** CN1CCN(C(=O)c2cc(COc3c(F)cccc3F)on2)CC1c1ccccc1 (configuration not stated) was tested. Which EC50 did it give?
**A.** Its EC50 is 58.4 µM (inactive).

**Q.** Which EC50 does the source give for Nc1cc(Oc2cccc(Cl)c2)nc(NCc2ccccc2)n1 here?
**A.** Its EC50 is 252 µM (inactive).

**Q.** O=C(Oc1c(Cl)cc(Cl)c2cccnc12)c1cccc([N+](=O)[O-])c1 was tested. Which EC50 did it give?
**A.** The EC50 was 59.9 µM (inactive).

**Q.** Which EC50 does the source give for O=C(OCC(=O)N1CCN(C(=O)c2ccco2)CC1)c1cc(-c2ccc(F)cc2)nc2ccccc12 here?
**A.** Its EC50 is 3.01 µM.

**Q.** Which EC50 does the source give for Cc1ccc(NC(=O)c2ccc(Cl)c(N3C(=O)C=CC3=O)c2)cc1 here?
**A.** Its EC50 is 3.03 µM.

**Q.** Which EC50 does the source give for Cn1ncc(S(=O)(=O)Cc2ccccc2)c(Cl)c1=O here?
**A.** The EC50 was 2.73 µM.

**Q.** Which EC50 does the source give for CCN(CC)C(=O)Oc1ccnc2cc(Cl)ccc12 here?
**A.** The EC50 was 119 µM (inactive).

**Q.** Which EC50 does the source give for CNc1nc(N)c([N+](=O)[O-])c(Nc2cc(OC)ccc2OC)n1 here?
**A.** The EC50 was 3.04 µM.

**Q.** For CC(C)(C)c1ccc(NC(=O)COC(=O)c2ccc([N+](=O)[O-])s2)cc1, which EC50 is on record?
**A.** The EC50 was 2.02 µM.

**Q.** For CCOC(=O)CCS(=O)(=O)c1nc(-c2ccccc2)cc(C(F)(F)F)n1, which EC50 is on record?
**A.** Its EC50 is 47.9 µM (inactive).

**Q.** With Cc1ccc(NC(=O)c2cc(N3C(=O)C=CC3=O)ccc2N2CCOCC2)cc1Cl as the compound, how does the EC50 read?
**A.** The EC50 was 0.78 µM.

**Q.** With O=c1cc(CSc2ccc(Cl)cc2)nc(-c2ccccn2)[nH]1 as the compound, how does the EC50 read?
**A.** Its EC50 is 1.27 µM.

**Q.** CCOC(=O)CSC1=NC(=O)/C(=C\c2ccc(Cl)cc2)S1 was tested. Which EC50 did it give?
**A.** Its EC50 is 16 µM.

**Q.** How did the EC50 turn out when CC(C)(C)C(=O)NC(=S)NNC(=O)c1ccc(-c2ccccc2)cc1 was run?
**A.** The EC50 was 30.2 µM.

**Q.** How did the EC50 turn out when COc1ccc([N+](=O)[O-])c(S(=O)(=O)c2ccccc2)n1 was run?
**A.** Its EC50 is 35.4 µM (inactive).

**Q.** COc1ccc(/C=C/C(=O)NC(=S)NNC(=O)c2cnccn2)cc1 was tested. Which EC50 did it give?
**A.** The EC50 was 11.4 µM.

**Q.** With Cc1cc(C(=O)Nc2nc(-c3ccccn3)cs2)ccc1[N+](=O)[O-] as the compound, how does the EC50 read?
**A.** The EC50 was 85.3 µM (inactive).

**Q.** How did the EC50 turn out when CCOC(=O)CS(=O)(=O)c1nc(-c2ccccc2)cc(C(F)(F)F)n1 was run?
**A.** The EC50 was 30.2 µM.

**Q.** CSc1nnc2c3cc(F)ccc3n(C)c2n1 was tested. Which EC50 did it give?
**A.** The EC50 was 1.14 µM.

**Q.** For O=C(OCC(=O)N1CCN(C(=O)c2ccco2)CC1)c1cc(-c2cccc(Br)c2)nc2ccccc12, which EC50 is on record?
**A.** The EC50 was 8.08 µM.

**Q.** CN(C)CCCNc1nc(N)c([N+](=O)[O-])c(Nc2cccc(F)c2)n1 was tested. Which EC50 did it give?
**A.** The EC50 was 106 µM (inactive).

**Q.** CC(=O)Nc1ncnc2c1c(-c1ccc(Cl)cc1)nn2C(C)(C)C was tested. Which EC50 did it give?
**A.** Its EC50 is 11.5 µM.

**Q.** For COc1ccc([N+](=O)[O-])c(S(=O)(=O)c2ccc(Cl)cc2)n1, which EC50 is on record?
**A.** The EC50 was 4.49 µM.

**Q.** O=C(OCn1ncc(Br)c(Br)c1=O)c1ccc(F)cc1 was tested. Which EC50 did it give?
**A.** Its EC50 is 4.53 µM.

**Q.** For CNc1nc(N)c([N+](=O)[O-])c(Nc2cccc(F)c2)n1, which EC50 is on record?
**A.** Its EC50 is 5.19 µM.

**Q.** Which EC50 does the source give for Cc1ccc(S(=O)(=O)c2ncccc2[N+](=O)[O-])cc1 here?
**A.** Its EC50 is 68.6 µM (inactive).

**Q.** Which EC50 does the source give for Cc1ccc(C(=O)NNC(=S)NC(=O)COc2ccccc2)cc1 here?
**A.** Its EC50 is 52.7 µM (inactive).

**Q.** With CC1=NN(c2ccccc2)C(=O)C1C(c1ccccc1[N+](=O)[O-])C(C#N)C#N (configuration not stated) as the compound, how does the EC50 read?
**A.** Its EC50 is 3.65 µM.

**Q.** With Clc1ccc(N=c2ssnc2Cl)cc1 as the compound, how does the EC50 read?
**A.** Its EC50 is 2.03 µM.

**Q.** How did the EC50 turn out when O=[N+]([O-])c1ccc(S(=O)(=O)c2cccc(C(F)(F)F)c2)nc1 was run?
**A.** The EC50 was 1.37 µM.

**Q.** Cc1nn2c(-c3ccncc3)nnc2c2ccccc12 was tested. Which EC50 did it give?
**A.** Its EC50 is 4.6 µM.

**Q.** How did the EC50 turn out when Cc1ccc(-c2nn(C(C)(C)C)c3ncnc(N)c23)cc1 was run?
**A.** The EC50 was 1.19 µM.

**Q.** CC(C)(C)C(=O)C(Cl)C(=O)Nc1ccccc1 (configuration not stated) was tested. Which EC50 did it give?
**A.** The EC50 was 4.18 µM.

**Q.** Which EC50 does the source give for CCC(C)Nc1nc(N)c([N+](=O)[O-])c(Nc2cccc(F)c2)n1 (configuration not stated) here?
**A.** Its EC50 is 50 µM (inactive).

**Q.** C[C@H]1C[C@@H](C)C(=O)[C@@H]([C@H](O)CC2CC(=O)NC(=O)C2)C1 was tested. Which EC50 did it give?
**A.** The EC50 was 0.42 µM.

**Q.** Which EC50 does the source give for Nc1cc(Nc2cccc(F)c2)nc(NCc2ccccc2)n1 here?
**A.** Its EC50 is 292 µM (inactive).

**Q.** O=[N+]([O-])c1cc(Cl)c2cccnc2c1O was tested. Which EC50 did it give?
**A.** Its EC50 is 27.2 µM.

**Q.** For O=[N+]([O-])c1ccc(O)c2ncccc12, which EC50 is on record?
**A.** Its EC50 is 25.4 µM.

**Q.** How did the EC50 turn out when CC(C)(C)n1nc(-c2ccc(F)cc2)c2c(N)ncnc21 was run?
**A.** The EC50 was 1.01 µM.

**Q.** For C[C@@H]1C[C@@H]([C@H](O)CC2CC(=O)NC(=O)C2)C(=O)[C@@H](C)C1, which EC50 is on record?
**A.** Its EC50 is 0.87 µM.

**Q.** How did the EC50 turn out when Cc1cc(C(=O)COC(=O)c2ccc[nH]c2=O)c(C)n1-c1ccccc1F was run?
**A.** Its EC50 is 3.28 µM.

**Q.** Which EC50 does the source give for COc1ccc(C(=O)NC(=S)NNC(=O)c2cnccn2)cc1 here?
**A.** Its EC50 is 0.71 µM.

**Q.** How did the EC50 turn out when COC(=O)CCS(=O)(=O)c1nc(-c2ccccc2)cc(C(F)(F)F)n1 was run?
**A.** Its EC50 is 66.5 µM (inactive).

**Q.** Which EC50 does the source give for C/C(=N\NC(=O)c1ccc(C(C)(C)C)cc1)c1ccccn1 here?
**A.** Its EC50 is 293 µM (inactive).

**Q.** CCc1ccc(OCC(=O)NNC(=S)NC(=O)C2CC2)c(Br)c1 was tested. Which EC50 did it give?
**A.** Its EC50 is 2.74 µM.

**Q.** O=[N+]([O-])c1cc(S(=O)(=O)C(F)(F)F)ccc1Sc1nc2ccccc2s1 was tested. Which EC50 did it give?
**A.** The EC50 was 17.3 µM.

**Q.** CCOC(=O)c1c(C)oc2c1c(C(c1cccnc1)N1CCOCC1)c(O)c1ccccc12 (configuration not stated) was tested. Which EC50 did it give?
**A.** Its EC50 is 2.78 µM.

**Q.** With CC(C)(C)n1nc(-c2ccc(Cl)cc2)c2c(N)ncnc21 as the compound, how does the EC50 read?
**A.** The EC50 was 0.42 µM.

**Q.** With Cc1ccc(S(=O)(=O)c2ccc([N+](=O)[O-])cn2)cc1 as the compound, how does the EC50 read?
**A.** Its EC50 is 3.77 µM.

**Q.** With c1ccc(-c2cccc(-c3ccccn3)n2)nc1 as the compound, how does the EC50 read?
**A.** Its EC50 is 49.9 µM (inactive).

**Q.** With CSC1=NS(=O)(=O)c2c(C)nn(C)c2S1 as the compound, how does the EC50 read?
**A.** The EC50 was 175 µM (inactive).

**Q.** How did the EC50 turn out when O=C(NC(=S)NNC(=O)c1cnccn1)c1ccc(F)cc1 was run?
**A.** The EC50 was 3.66 µM.

**Q.** For CC(Oc1ccc(Cl)cc1)C(=O)NNC(=S)NC(=O)c1ccco1 (configuration not stated), which EC50 is on record?
**A.** The EC50 was 3.54 µM.

**Q.** O=C(OCn1ncc(Br)c(Br)c1=O)c1c(F)cccc1F was tested. Which EC50 did it give?
**A.** The EC50 was 3.55 µM.

**Q.** O=C(Oc1ccnc2cc(Cl)ccc12)N1CCCCCC1 was tested. Which EC50 did it give?
**A.** The EC50 was 16.7 µM.
